Target: T1, MAL^TIR (Homo sapiens, UniProt P58753)
T1 construct: MAL (residues 79–221); 6xHis; made in house; host or cells: E. coli BL21 (DE3)
Assay: T‐Surf phage library (P8 and P3) selection against MAL^TIR, four rounds, NGS read counts
Format: binding
Details: for P8_MAL Rank (after) / P8_MAL Rank (before): P8 library; for P3_MAL Rank (after) / P3_MAL Rank (before): P3 library; for Population: 4th round of selection against MAL TIR, share of NGS reads
Description: T‐Surf libraries were screened against the immobilized TIR domains of two major human TLR adaptor proteins, MAL^TIR and MyD88^TIR, allowing cross‐species selection of TIR‐binding motifs with 190 946 TIR‐derived peptides in a single binding assay (Scheme 1). Enriched phage pools from the fourth round of selection were analyzed using NGS after barcoding the peptide‐coding regions of the phage pools.
Phage display screening was performed by coating two wells of a 96‐well plate (Maxisorp, Thermo Fisher Scientific) with 100 µL of 5 µg mL^−1 TIR domains overnight; then, the coated wells were blocked with 200 µL of blocking buffer (0.2% BSA in PBS) and set aside for 1 h at 4 °C with gentle shaking. Next, 100 µL of the phage library was added to the wells and incubated for 1 h at room temperature (RT; 20 – 22 °C) with gentle shaking. The plate was washed four times with PBS containing 0.5% Tween‐20; the bound phages were eluted by adding 100 µL of 100 mM HCl to each well. The elute was neutralized with 10 µL of 1.0 M Tris‐HCl (pH 11.0). E. coli TG1 cells were grown to the log phase (A600 = ≈0.6), and 1 mL of the culture was incubated with 100 µL of the eluted phages for 30 min at 37 °C, with shaking at 200 rpm. Next, 1 µL of M13KO7 helper phages was added, followed by incubation for 45 min at 37 °C, with shaking. Subsequently, the cells were transferred to 25 mL of 2× yeast extract tryptone/carbenicillin/kanamycin medium and incubated overnight at 37 °C with shaking at 200 rpm. The amplified phages were precipitated with 20% PEG‐8000/2.5 M NaCl to be used for the next round of selection.
The naïve T‐Surf libraries in P8 and P3 and the enriched phage pools after four rounds were barcoded for NGS as previously described.^[ [59] ^] Briefly, 5 µL of the phage pool was used as a template for 20 cycles of a 50 µL PCR reaction using […] each of forward and reverse barcoded primers and PrimeSTAR Max DNA Polymerase. The PCR products were purified using Expin Gel SV (GeneAll). The NGS samples were quantified using qPCR, following the qPCR Quantification Protocol Guide (KAPA Library Quantification kits for Illumina Sequencing Platform), and qualified using the TapeStation High Sensitivity D1000 ScreenTape (Agilent Technologies). The indexed libraries were further sequenced by Macrogen (Seoul, Republic of Korea) using the NovaSeq platform (Illumina) with 100 bp paired‐end reads. The reads were demultiplexed by barcodes and filtered for an average Phred quality score of at least 30, followed by trimming the flanking consensus sequences using Cutadapt (version 2.3). Peptide sequence populations were analyzed according to the read counts.

[1] = P8_MAL: rank by count after grouping
[2] = P8_MAL: rank by count before grouping
[3] = 4R selection against MAL, rank after grouping
[4] = 4R selection against MAL, rank before grouping
[5] = selection against MAL, rank after grouping
[6] = selection against MAL, rank before grouping
[7] = selection against MAL, rank by count after grouping
[8] = selection against MAL, rank by count before grouping
[9] = selection against MAL TIR, rank by count after grouping
[10] = selection against MAL TIR, rank by count before grouping
[11] = P8_MAL pool: P8 T-Surf phage library
[12] = P3_MAL: rank by count after grouping
[13] = P3_MAL: rank by count before grouping

T1 sequence (P58753 79-221): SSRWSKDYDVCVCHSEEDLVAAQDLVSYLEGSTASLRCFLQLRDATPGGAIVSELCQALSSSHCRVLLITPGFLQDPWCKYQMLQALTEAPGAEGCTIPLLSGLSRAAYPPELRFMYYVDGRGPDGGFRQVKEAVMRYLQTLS

## WFYELLVSLIVRDTKV
[1]
  Rank (after): 394
[2]
  Rank (before): 1150

## LFFYESLKHLLRIDCR
[3]
  P8_MAL Rank (after): 646
[4]
  P8_MAL Rank (before): 2170

## WFYERFVSQIPRDTNL
[5]
  P8_MAL Rank (after): 550
[6]
  P8_MAL Rank (before): 1151

## VEPTQVRKQRCGGKC
[7]
  P3_MAL Rank (after): 760
[8]
  P3_MAL Rank (before): 1661

## AFFGAQLKSVLGNPPM
[9]
  P8_MAL Rank (after): 210
[10]
  P8_MAL Rank (before): 1740

## DTALTNSGFHIFRDNE
[7]
  P3_MAL Rank (after): 689
[8]
  P3_MAL Rank (before): 1984

## YFLLFVLFGRSAIGSM
[7]
  P8_MAL Rank (after): 713
[8]
  P8_MAL Rank (before): 1459

## VLQKFISHLYDFLARK
[9]
  P3_MAL Rank (after): 262
[10]
  P3_MAL Rank (before): 761

## AFFGEQVSPVLGKPTM
[1]
  Rank (after): 426
[2]
  Rank (before): 1748

## AFFWAQLKSELGNPSM
[5]
  P8_MAL Rank (after): 515
[6]
  P8_MAL Rank (before): 1644

## YLNSGYPWRYDRLRFA
[7]
  P3_MAL Rank (after): 750
[8]
  P3_MAL Rank (before): 1498

## WFYERLVSLILRNTKV
[11]
  Population: 0.00309%

## KNLFNEMVSKNIRTYM
[5]
  P3_MAL Rank (after): 567
[6]
  P3_MAL Rank (before): 3780

## RAFVADLDEALKQRAL
[12]
  Rank (after): 182
[13]
  Rank (before): 2432

## PNLRPKVRNYLIRTKT
[5]
  P3_MAL Rank (after): 532
[6]
  P3_MAL Rank (before): 2672

## AFFWPQLKSMLRNTTV
[1]
  Rank (after): 418
[2]
  Rank (before): 1716

## LQNHCKLALTKVANLV
[9]
  P3_MAL Rank (after): 230
[10]
  P3_MAL Rank (before): 2137

## PNLRTKVLNYLFRTNT
[9]
  P3_MAL Rank (after): 237
[10]
  P3_MAL Rank (before): 2711

## WFWDKLKYALPHRYEP
[1]
  Rank (after): 113
[2]
  Rank (before): 556

## HLLKEFGKKLITAFKN
[3]
  P3_MAL Rank (after): 646
[4]
  P3_MAL Rank (before): 2779

## DTILKKGESIAPELLG
[5]
  P8_MAL Rank (after): 548
[6]
  P8_MAL Rank (before): 2000

## AFFWAQLKSVLRTQTM
[7]
  P8_MAL Rank (after): 696
[8]
  P8_MAL Rank (before): 1633

## KNLFYDLVSKNIRTFM
[7]
  P3_MAL Rank (after): 712
[8]
  P3_MAL Rank (before): 3473

## HFFGFN*KAFWAKPAX
[11]
  Population: 0.00309%

## ALFWAQLKCVMGNPAM
[7]
  P8_MAL Rank (after): 705
[8]
  P8_MAL Rank (before): 1932

## WHFHVRLCLRKLLQAM
[7]
  P3_MAL Rank (after): 694
[8]
  P3_MAL Rank (before): 1290

## RWFWDKLIYALSRNTH
[12]
  Rank (after): 471
[13]
  Rank (before): 3228

## MERVKAFHQRLKTAPI
[9]
  P3_MAL Rank (after): 225
[10]
  P3_MAL Rank (before): 2932

## RFFLESLKQLLRSDGR
[1]
  Rank (after): 455
[2]
  Rank (before): 2301

## VLHKFIGYLRDALQHR
[12]
  Rank (after): 184
[13]
  Rank (before): 1689

## AFLCDQLSTLMDPPTF
[5]
  P8_MAL Rank (after): 578
[6]
  P8_MAL Rank (before): 1805

## NLWKLWTKPGGVRDDR
[3]
  P3_MAL Rank (after): 618
[4]
  P3_MAL Rank (before): 3319

## AFLYAFLKNLTHPTNF
[7]
  P8_MAL Rank (after): 683
[8]
  P8_MAL Rank (before): 1813

## SSFRNDLWRLLELSKK
[12]
  Rank (after): 419
[13]
  Rank (before): 3195

## WFYERLVGLILRETEG
[3]
  P8_MAL Rank (after): 660
[4]
  P8_MAL Rank (before): 1163

## HQAFTGHLHRYLVQRGV
[9]
  P3_MAL Rank (after): 192
[10]
  P3_MAL Rank (before): 979

## DWFLSKLSQHILRHEK
[7]
  P3_MAL Rank (after): 722
[8]
  P3_MAL Rank (before): 1886

## IFCISCCLAVRKPSI
[9]
  P8_MAL Rank (after): 241
[10]
  P8_MAL Rank (before): 2434

## AFLCTQLNNVTDTPTL
[1]
  Rank (after): 442
[2]
  Rank (before): 1756

## RNFVAYLFQALANIGI
[11]
  Population: 0.00371%

## LFFWASLNKLLRSDGR
[3]
  P8_MAL Rank (after): 648
[4]
  P8_MAL Rank (before): 2065

## AFFWAQLKNVLGNPTM
[11]
  Population: 0.00278%

## RNFVADLYQALANKGI
[1]
  Rank (after): 131
[2]
  Rank (before): 2186

## PYLRTQVLNYLMRTKN
[5]
  P3_MAL Rank (after): 499
[6]
  P3_MAL Rank (before): 2630

## AFFWAQLKSVLGNLTK
[1]
  Rank (after): 399
[2]
  Rank (before): 1623

## SSFREGLWHLLELTKT
[5]
  P3_MAL Rank (after): 525
[6]
  P3_MAL Rank (before): 3171

## AFLYTFLINPTHPTNS
[9]
  P8_MAL Rank (after): 255
[10]
  P8_MAL Rank (before): 1859

## VRVVDDGSVSPLEM
[5]
  P3_MAL Rank (after): 512
[6]
  P3_MAL Rank (before): 1691

## YVFTGNLHRYLMQLGV
[5]
  P3_MAL Rank (after): 536
[6]
  P3_MAL Rank (before): 1341

## VEPTQVRKQSGSVKNA
[9]
  P3_MAL Rank (after): 244
[10]
  P3_MAL Rank (before): 1663

## AVRYTILINLTHTTNF
[1]
  Rank (after): 462
[2]
  Rank (before): 1955

## RSFVAYLFQALANKGI
[11]
  Population: 0.0034%

## CFYEGQLFLALADKSI
[9]
  P8_MAL Rank (after): 284
[10]
  P8_MAL Rank (before): 1106

## AFFGAQLKSVLGNPTM
[11]
  Population: 0.0034%

## SFLYTFLITLTHPTTF
[9]
  P8_MAL Rank (after): 266
[10]
  P8_MAL Rank (before): 1447

## YAASPWWFDELVKIVG
[1]
  Rank (after): 390
[2]
  Rank (before): 1526

## ALQYTILINLTNPTNF
[3]
  P8_MAL Rank (after): 665
[4]
  P8_MAL Rank (before): 1962

## PNLRTKVLSYLMRTKT
P3_MAL pool: P3 T-Surf phage library
  Population: 0.00376%

## LVAHGISNKLKIFATI
[12]
  Rank (after): 387
[13]
  Rank (before): 2092

## LKVESWRRAPEKAGKL
[12]
  Rank (after): 457
[13]
  Rank (before): 2263

## DFLNWFIALKSTVLET
[3]
  P8_MAL Rank (after): 598
[4]
  P8_MAL Rank (before): 1976

## YTALTNSGFHTFLDNE
[9]
  P3_MAL Rank (after): 217
[10]
  P3_MAL Rank (before): 1547

## GRYGELFMTETDVREG
[12]
  Rank (after): 403
[13]
  Rank (before): 1763

## KLCWEKFKCFLPSLSR
[1]
  Rank (after): 404
[2]
  Rank (before): 2727

## AFLYTFLINLTHPTTF
[11]
  Population: 0.0034%

## WFYERLVSLILRDTIV
[11]
  Population: 0.00309%

## YAFTGHLHRSLVQSGV
[12]
  Rank (after): 154
[13]
  Rank (before): 1381

## LFFWESLKQRLRSDVR
[9]
  P8_MAL Rank (after): 193
[10]
  P8_MAL Rank (before): 2118

— paper PMC11714206, “Massively Parallel Screening of Toll/Interleukin‐1 Receptor (TIR)‐Derived Peptides Reveals Multiple Toll‐Like Receptors (TLRs)‐Targeting Immunomodulatory Peptides” (Advanced Science, 2024)
